Values quoted from earlier work, collected in patent publication US20220241364A1, “Composition for Lowering Blood Glucose Level, Reducing Blood Hemoglobin A1c Content, or Increasing Blood HDL-Cholesterol Content” (House Wellness Foods Corporation, priority 2019, published 2022).

Settings: in vivo

CC(C)=CC(=O)C[C@H](C)c1ccc(C)cc1 [ar turmerone]
elevation of blood sugar level: effect of inhibiting the elevation
